Results from US20210393606A1, “THERAPEUTIC AGENT FOR FRONTAL LOBE DYSFUNCTION” (KYOWA HAKKO KIRIN CO., LTD., priority 2015, published 2021).

Assays:
[1] = system: NAC61-95-treated Slc:ICR mice (α-synucleinopathy model); assay: Gait analysis (CatWalk XT) in NAC61-95-treated α-synucleinopathy model mice; assay type: in vivo, mouse; conditions: NAC61-95 mice
Procedure: (§1) By reference to articles (Science, 338, p. 949 (2012); Behavioral Brain Reexplore, 208, p. 274 (2010)), an animal model capable of confirming a treatment and/or prophylactic effect on α-synucleinopathy, for example, Lewy body disease (for example, cognitive impairment in Parkinson's disease, diffuse Lewy body disease, dementia with lewy bodies, movement disorder associated with Lewy body disease and the like) was generated as follows.
The cognitive function was evaluated using a spontaneous alternation task. The spontaneous alternation task is known as an evaluation system of cognitive function utilizing properties of animal to willingly explore a novel environment (Neuroscience and Biobehavioral Reviews 28, p. 497 (2004)). That is, if the animal remembers the arm previously entered in exploration in a Y-maze apparatus, the behavior of spontaneous entry into a different arm is expressed by an alternation behavior rate, and used as an index of cognitive function. The motor function was evaluated by analyzing gait function in natural walk conditions using a gait analysis system.
NAC61-95 (custom, Sigma) was dissolved in PBS to prepare 4 μg/μL NAC61-95 solution.
Under pentobarbital (Somnopentyl, Kyoritsuseiyaku, 50 mg/kg, i.p.) anesthesia, 5 μL of NAC61-95 solution was injected using a Hamilton syringe (10 μL) equipped with a double needle (27G, needle length 3 mm) into the right lateral cerebral ventricle of Slc:ICR mice (male, Japan SLC) over about 1 min, and stood for 1 min to induce cognitive impairment and/or movement disorder. The sham treatment group was injected with 5 μL of PBS.
A gait analysis system (CatWalk XT, ver. 9.1, Noldus) was used. The system was constituted of a walkway with pressure dependent luminescence glass and a light source, luminescence ceiling, highly sensitive highspeed camera and analysis software, and the gait was analyzed by digitizing the brightness of the light emitted by the pressure dependent luminescence glass in response to the pressure. The gait data was automatically recorded and analyzed by the analysis software only when the mice moved straight forward without stopping in the predetermined area on the walkway.
The mice were brought into the experiment room without light and habituated for not less than 1 hr. The mice were placed in the apparatus, and allowed to walk freely until 6 running data were obtained for each mouse. The earliest three analyzable running data were used, and mean was calculated. By reference to an article relating to movement disorder in Parkinson's disease animal model (Journal of Biomedical Science 17, p. 9 (2010)), a decrease in the maximum contact area (Total surface area of certain paw at the moment of maximum paw contact) and print area (total surface area of the paw print), as well as change in the gait pattern (sequence of contact of 4 paws) were used as indices of movement disorder.
At 60 min before the test, compound (I) (suspended in 0.5 w/v % aqueous MC solution, and prepared to 0.5 mL per 100 g body weight of mouse on the administration day) was orally administered at a dose of 0.1 mg/kg, or a vehicle (0.5 w/v % aqueous MC solution) free of the test compound was orally administered at 0.5 mL per 100 g body weight of mice on the administration day.

[2] = system: NAC61-95-treated Slc:ICR mice (α-synucleinopathy model); assay: Spontaneous alternation task (Y-maze) in NAC61-95-treated α-synucleinopathy model mice; assay type: in vivo, mouse; conditions: NAC61-95 mice
Procedure: as §1
The cognitive function was evaluated using a spontaneous alternation task. The spontaneous alternation task is known as an evaluation system of cognitive function utilizing properties of animal to willingly explore a novel environment (Neuroscience and Biobehavioral Reviews 28, p. 497 (2004)). […] The motor function was evaluated by analyzing gait function in natural walk conditions using a gait analysis system. […]
Mice were brought into the experiment room on the previous day of test for habituation. […] Entry of all four limbs of a mouse into one arm was defined as entry into arm, and the order of entry of the mice into the arm was recorded. A behavior of continuous entry into all three different arms was defined as spontaneous alternation behavior, and the percentage of alternation behavior was calculated by the following calculation formula. […]

[3] = system: SLC: ICR male mice injected with α-synuclein or NAC61-95; assay: α-Synucleinopathy model (α-synuclein or NAC61-95 injected mice), behavioral pharmacological evaluation, Experimental Example 2; assay type: in vivo, mouse; conditions: appropriate dose, a few hours after administration; written in present tense, no data
From the text: By reference to articles (Science, 338, p. 949 (2012); Behavioral Brain Reexplore, 208, p. 274 (2010)), an animal model capable of confirming a treatment and/or prophylactic effect on α-synucleinopathy, for example, Lewy body disease (for example, cognitive impairment in Parkinson's disease, diffuse Lewy body disease, dementia with lewy bodies, movement disorder associated with Lewy body disease and the like) is generated.
An appropriate dose of a solution of α-synuclein (rPeptide, S-100) or NAC61-95 (custom, Sigma) dissolved in phosphate buffered saline (PBS) is injected to the striatum or lateral cerebral ventricle of SLC: ICR male mice to induce cognitive impairment and/or movement disorder. After confirmation of the pathology induction, an appropriate dose of compound (I) is administered to the mice.

[4] = system: medial prefrontal dopaminergic terminal-lesioned rat; assay: Object recognition test using medial prefrontal dopaminergic terminal-lesioned rat; assay type: in vivo; conditions: lesioned rats
From the text: The object recognition test is known as an evaluation system of cognitive function utilizing properties of animal to willingly explore a new object (Behavioural Brain Research 31, p. 47 (1988)). An animal is placed in an apparatus containing two identical objects and allowed to freely explore (acquisition trial), after which one of the objects in the apparatus is changed to one having a different shape (novel object) and the animal is allowed to freely explore (test trial). […] In this test, such property is evaluated as an index of cognitive function.
CD(SD)IGS rat (male, Charles River) received Pentobarbital sodium salt (Tokyo Chemical Industry Co., Ltd., 30 mg/kg) intraperitoneally and fixed on a brain stereotaxis apparatus (SR-6, Narishige kagaku kikai kenkyusho) under anesthesia. Using a microinjection pump (CMA/100, Carnegie Medicine), dopaminergic neurotoxin, 6-hydroxidopamine hydrochloride (6-OHDA, Sigma-Aldrich) was injected over about 1 min at (1) 3.2 mm anterior, 0.8 mm left lateral and 3.0 mm ventral, (2) 3.2 mm anterior, 0.8 mm right lateral and 3.0 mm ventral, (3) 3.2 mm anterior, 0.8 mm left lateral and 5.0 mm ventral, (4) 3.2 mm anterior, 0.8 mm right lateral and 5.0 mm ventral, (5) 4.2 mm anterior, 0.8 mm left lateral and 4.0 mm ventral, and (6) 4.2 mm anterior, 0.8 mm right lateral and 4.0 mm ventral, each from the bregma suture of the rats to lesion dopaminergic terminals in the medial prefrontal cortex. 6-OHDA was prepared at a concentration of 4 μg/μL, injected at a flow rate of 1 μL/min over 1 min, and stood for 1 min. In the sham operated group, a stainless cannula was inserted into the same coordinates. […] The dosing volumes of pentobarbital sodium and desipramine hydrochloride were calculated at 1 and 5 mL/kg based on the body weight measured on the administration day. […]
To familiarize the rats with the experimenter, they were handled for 3 days before the test. […] The time spent in exploration (sniffing) each object of the rats in the test trial was measured, and the ratio (%) relative to the total exploration time was calculated. […]

[5] = 0.1 mg/kg orally 60 min before test, mean±standard error
[6] = 0.3 mg/kg orally 60 min before test, 3 min test trial, mean±standard error

In the case of `Cc1ccc(C(=O)Nc2nc(-c3ccco3)c(C(=O)C3CCOCC3)s2)cn1` [compound (I)], the “gait pattern AA” value ([1]; AA: right forepaw → right hindpaw → left forepaw → left hindpaw, 0.1 mg/kg orally, mean±standard error) is reported as 0.00 ± 0.00, the “gait pattern AB” value ([1]; AB: right forepaw → left hindpaw → left forepaw → right hindpaw, 0.1 mg/kg orally, mean±standard error) is reported as 81.86 ± 4.25 and the “gait pattern CA” value ([1]; CA: right forepaw → left forepaw → right hindpaw → left hindpaw, 0.1 mg/kg orally, mean±standard error) is reported as 13.39 ± 4.00. For the same molecule, the “gait pattern CB” value ([1]; CB: right forepaw → left hindpaw → right hindpaw → left forepaw, 0.1 mg/kg orally, mean±standard error) was 4.75 ± 1.79, the “change of gait pattern compared to the vehicle administration group” value ([1]; 0.1 mg/kg orally) was “an increase in pattern AB and a decrease in pattern CB” and the “maximum contact area, left forepaw” value [1, 5] was 0.30 ± 0.02. The “maximum contact area, left hindpaw” value [1, 5] was 0.31 ± 0.02, the “maximum contact area, right forepaw” value [1, 5] was 0.29 ± 0.02 and the “maximum contact area, right hindpaw” value [1, 5] was 0.30 ± 0.02. For the same molecule, the “print area, left forepaw” value [1, 5] was 0.40 ± 0.02, the “print area, left hindpaw” value [1, 5] was 0.38 ± 0.03 and the “print area, right forepaw” value [1, 5] was 0.39 ± 0.02. The “print area, right hindpaw” value [1, 5] was 0.37 ± 0.03, the “maximum contact area and gait area of the left hindpaw compared to the vehicle administration group” value ([1]; 0.1 mg/kg orally, p<0.05) was “significantly large” and the “maximum contact area and gait area of the right forepaw compared to the vehicle administration group” value ([1]; 0.1 mg/kg orally, p<0.1) was “tendency of the maximum contact area and gait area of the right forepaw being large”. The “alternation behavior (%)” value ([2]; 0.1 mg/kg orally 60 min before test, Y-maze 7 min, mean±standard error) was 69.5 ± 2.4%, the “alternation behavior compared to the vehicle administration group” value ([2]; 0.1 mg/kg orally, Student's t-test p<0.01) was “significantly high” and the “pathology (cognitive impairment and/or movement disorder) by Y-maze, spontaneous motor activity, CATWALK” value [3] was “Improvement of the pathology”. The “ratio (%) of exploration time, familiar object” value [4, 6] was 34.97 ± 2.88%, the “ratio (%) of exploration time, novel object” value [4, 6] was 65.03 ± 2.88% and the “exploration time of the novel object compared with the familiar object” value ([4]; 0.3 mg/kg orally, paired t-test p<0.001) was “significantly longer”.
